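All cell lines were grown in 96-well plates and treated with compound for 48 hours. TGI marks complete inhibition of growth.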
Columns and labels:
Assay in all cases: growth of human tumour cells (NCI), 48 h
SR leukemia = tested on: SR leukemia
DLD-1 colon = tested on: DLD-1 colon
A549 NSCLC = tested on: A549 NSCLC
KM20L2 colon = tested on: KM20L2 colon
SNB-78 CNS = tested on: SNB-78 CNS
NCI-H23 lung = tested on: NCI-H23 lung
OVCAR-4 ovarian = tested on: OVCAR-4 ovarian
MDA-MB-435 = tested on: MDA-MB-435
RXF-631 renal = tested on: RXF-631 renal
XF 498 CNS = tested on: XF 498 CNS
HCT-116 colon = tested on: HCT-116 colon
M19-MEL melanoma = tested on: M19-MEL melanoma
ACHN renal = tested on: ACHN renal
LXFL 529 NSCLC = tested on: LXFL 529 NSCLC
NCI-H522 lung = tested on: NCI-H522 lung
MOLT-4 leukemia = tested on: MOLT-4 leukemia
DMS 114 small cell lung = tested on: DMS 114 small cell lung
DMS 273 small cell lung = tested on: DMS 273 small cell lung
HOP-18 NSCLC = tested on: HOP-18 NSCLC

SMILES | TGI (SR leukemia) | TGI (DLD-1 colon) | TGI (A549 NSCLC) | TGI (KM20L2 colon) | TGI (SNB-78 CNS) | TGI (NCI-H23 lung) | TGI (OVCAR-4 ovarian) | TGI (MDA-MB-435) | TGI (RXF-631 renal) | TGI (XF 498 CNS) | TGI (HCT-116 colon) | TGI (M19-MEL melanoma) | TGI (ACHN renal) | TGI (LXFL 529 NSCLC) | TGI (NCI-H522 lung) | TGI (MOLT-4 leukemia) | TGI (DMS 114 small cell lung) | TGI (DMS 273 small cell lung) | TGI (HOP-18 NSCLC)
CN(C)CCNc1ccc2nnn3c4ccc(Cl)cc4c(=O)c1c23 | 10.1 µM | 27.7 µM | 14.1 µM | 16 µM | 34.9 µM | 18.7 µM | 15.9 µM | 18.8 µM | 16.4 µM | 23.8 µM | 14.6 µM | 15.1 µM | 12.3 µM | 19.2 µM | 17.5 µM | 13.3 µM |  |  | 
CCOP(=O)(C/C(=N/NC(C)(C)C)C(=O)Nc1nc2ccc(C)cc2s1)OCC | > 100 µM |  | > 100 µM | > 100 µM | > 100 µM | > 100 µM | > 100 µM |  | > 100 µM | > 100 µM | > 100 µM | > 100 µM | > 100 µM | > 100 µM | > 100 µM | > 100 µM | > 100 µM | > 100 µM | > 100 µM
CC1(Br)C(=O)NC(=O)N([C@H]2C[C@H](O)[C@@H](CO)O2)C1N=[N+]=[N-] (stereo not given in full) | > 100 µM | > 100 µM | > 100 µM | > 100 µM | > 100 µM | > 100 µM | > 100 µM |  | > 100 µM | > 100 µM | > 100 µM | > 100 µM | > 100 µM | > 100 µM | > 100 µM | > 100 µM | > 100 µM | > 100 µM | > 100 µM
CCCCC/C=C1\CCC(CN2CCOCC2)C1=O (stereo not given) | 12.1 µM | 19.2 µM | 39.4 µM | 19 µM | 47.4 µM | 29.8 µM | 48 µM | 17.8 µM | 44.9 µM | 31.8 µM | 54.9 µM | > 54.8 µM | 30.1 µM | 16.6 µM | 5.18 µM | 7.55 µM | 38.5 µM |  | 27.5 µM
O=c1[nH]nc2c3n[nH]c(=O)n3c3ccccc3n12 |  | > 100 µM | > 100 µM | > 100 µM | > 100 µM | > 100 µM | > 100 µM |  | > 100 µM | > 100 µM | > 100 µM | > 100 µM | > 100 µM | > 100 µM | > 100 µM | > 100 µM | > 100 µM | > 100 µM | 
COc1cc([C@@H]2c3cc4c(cc3[C@@H](NC(=O)c3ccc(C(C)=O)cc3)C3COC(=O)[C@@H]32)OCO4)cc(OC)c1O (stereo not given in full) |  | 17.7 µM | 2.41 µM | 8.05 µM | 85 µM | 1.41 µM | > 100 µM |  | 10.6 µM | 5.7 µM | 5.03 µM | 25.5 µM | 1.75 µM | > 100 µM | 3.89 µM | 29.9 µM | 4.74 µM | 7.62 µM | > 100 µM
CN1C(=O)c2cccc3c([N+](=O)[O-])ccc(c23)C1=O | 14 µM | 12.1 µM | 26.8 µM | 19.5 µM | 32 µM | 24.7 µM | 25.9 µM |  | 17.6 µM |  | 18.9 µM | 24.5 µM | 21.7 µM | 3.89 µM | 2.91 µM | 28.2 µM | 11.2 µM | 15.7 µM | 30.8 µM
CCOC(=O)NC(=O)c1cn(-c2ccc(CCOC(=O)CCCCCCCCC(=O)OCCc3ccc(-n4cc(C(=O)NC(=O)OCC)c(=O)[nH]c4=O)cc3)cc2)c(=O)[nH]c1=O | > 100 µM | > 100 µM | > 100 µM | > 100 µM | > 100 µM | > 100 µM | > 100 µM |  | > 100 µM | > 100 µM | > 100 µM | > 100 µM | > 100 µM | > 100 µM |  | > 100 µM | > 100 µM |  | > 100 µM
